“And” between values parts separate entries of the source, which are not always exact repeats. Identical values can stand only once. “Also recorded” adds a separate entry of the source. Counter-ions that a name gives are not always drawn.
Columns and labels:
[1] = Toxicity Test of Basic Fuchsine in guinea pigs; conditions: guinea pigs, 8, 6 and 4 mg/kg body weight/d, once per day, 21 days
Text: Materials: 24 white guinea pigs, purchased from Shenyang Pharmaceutical University, regular feeding; Basic fuchsine, from Tianjin Ju Hua Chemical Company Limited.
Matching and grouping of experimental animals: randomly divided into 4 groups (each group includes 6 counts, equal number of male and female), namely, control, high, medium, low fuchsine dosage group.
Method of administration: For each guinea pig, administered one time per day at a fixed time in the morning, the dosage for high, medium, low fuchsine dosage group are 8 mg/kg body weight/d, 6 mg/kg body weight/d, and 4 mg/kg body weight/d respectively; the drug administration period is 21 days, observe 3˜4 times per day, observe the guinea pig by spirit condition, appetite, gloss level of skin and hairs, physical condition, alertness and ability to escape.

blood cells = conditions: human, in vivo, po
Text: After taking basic fuchsine, the basic fuchsine activity over time can be observed through the blood phenomenon at different times.
Healthy individual as normal subject for observation
Patient recovered from the disease who volunteer to testing subject as volunteer subject
Binocular microscope xsp-12G model
Wright-Giemsa stain solution (available in the market)
Phosphate buffer (available in the market)
Obtain peripheral blood smear from normal subject and volunteer subject (normal control blood film, standby use)
Obtain peripheral blood smear from volunteer subject at different time after taking fuchsine (oral fuchsine blood film, standby use)
After the last blood sampling is complete, carrying staining together with the blood film before taking fuchsine orally of volunteer subject and the peripheral blood film of normal subject
V. observe oral fuchsine blood film under microscope with 100× objective lens (oil immersion) and 12.5× eyepiece, real object is viewed under magnification at 1250 times and the results are shown in Table 3.

[2] = test system: Mycobacterium tuberculosis; assay: Drug Susceptibility Testing on Lowenstein-Jensen medium; assay type: cell-based
Procedure: Drug Susceptibility Testing
(II) Culture Method: Lowenstein-Jensen medium (Improved method)
KH2PO4: 2.4 g; MgSO4.7H2O 0.24 g; magnesium citrate: 0.6 g; asparagine: 3.6 g; glycerin: 12 ml; distilled water: 600 ml; potato starch: 30 g; fresh whole egg liquid: 1000 ml; 2% malachite green solution: 20 ml
4. Drug: 2% basic fuchsine aqueous solution: 100 ml
Add water to KH2PO4, MgSO4.7H2O, magnesium citrate, asparagine and glycerin, dissolve through heating in a boiling water bath, then add potato starch and continue heating in water bath for 30 minutes, stir continuously to form a uniform paste. After cooling to about 60° C., add 1000 ml fresh whole egg liquid and 20 ml 2% malachite green solution, mix thoroughly and then filter by double-layered gauze, then dispensed into test tube with screw cap. 7 ml of the prepared solution is added to each test tube, then add the 2% basic fuchsine solution according to a specific proportion into the test tube (see Table 3 for the adding amount), then place the test tube into the 85% steam incubator for 90 minutes, cooling to 60° C. or below and then place the test tube inclinedly into the biological safety cabinet (also called purification station), thereby the culture medium is cooled to solidify and form an incline surface. Put 10^−2/ml living bacilli solution of Mycobacterium tuberculosis to the incline surface of the culture medium. The living bacilli solution for each tube is 0.1 ml. The concentration of bacilli solution in the culture medium is 10^−3 mg/ml. Place in Digital Biochemical Incubator to culture. After culture for 5 weeks, no bacteria growth refers to drug susceptibility, continue bacteria growth refers to drug non-susceptibility (See Table 4 for testing results).

Leprosy ulcers = assay: Basic Fuchsine for Treatment of Leprosy (patients); assay type: in vivo, human; conditions: individual leprosy ulcer patient, treatment method External
[3] = Change of urine pH with time after taking basic fuchsine; assay type: in vivo, human; conditions: for Urine pH value, Average: average of 9 patients, before drug 6; for Patent's urine pH value: individual patient (vegetarian), hydrochloride
Procedure: Therefore, the infected body, which is weakly acidic, is recovered to become weakly basic and this is beneficial to increasing the body's immunity such that Mycobacterium tuberculosis can be inhibited or removed. Because the integration of lysosomes inside macrophage with phagosome cannot be prevented, the bacteria can be removed. The changes in urine pH after taking basic fuchsine is illustrated in Table 2 and FIG. 1:
Remarks: The urine pH value reached the peak value at 2-3 hours after taking drug, and the peak period can sustain for 3-4 hours, then return to normal at 5-6 hours after taking drug.

M. tuberculosis = assay: Basic Fuchsine for treatment of Tuberculosis (patients); assay type: in vivo, human; conditions: for Drug treatment after 1 month (TB status, symptoms): individual TB patient, capsule 500 mg (basic fuchsine:ground rice 3:2), 1-2 capsule/day oral, hydrochloride
Procedure: Basic Fuchsine for treatment of Tuberculosis
Dosage for patient: Capsule, 500 mg/capsule, where the weight ratio of basic fuchsine to ground rice is 3:2, each patient takes 1˜2 capsule/day.
Method of administration: Every morning, before breakfast, take the capsule, three month as one treatment course, see Table 5 for patients' records, see Table 6 for treatment results.
1. All patients were diagnosis and confirmed by standard TB hospital or TB prevention and treatment center, and all patients encountered disease recurrence after conventional standard drug treatment.
3. Before drug treatment with basic fuchsine drug, all patients have obvious symptoms: body weakness, discomfort, fever, cough, night sweat, ascites, blood spitting, blood vomiting, etc. (skeletal TB patient experience pain, some experience amenorrhea).

Q: What does the source list for `Cc1cc(C(=C2C=CC(=N)C=C2)c2ccc(N)cc2)ccc1N` [basic fuchsine, rosaniline hydrochloride]?
A: Observation of spirit condition, appetite, skin and hairs, physical condition, alertness, ability to escape [1]: No changes is observed; Time remained inside the cell after absorption into blood (blood cells): 2 to 4 h; Testing results (bacteria growth) ([2]; Tube 1, 0.7 ml 2% basic fuchsine solution, final dilution factor 500, 5 weeks at 36 C): Grow; Testing results (bacteria growth) ([2]; Tube 2, 0.525 ml 2% basic fuchsine solution, final dilution factor 750, 5 weeks at 36 C): Grow; Testing results (bacteria growth) ([2]; Tube 3, 0.35 ml 2% basic fuchsine solution, final dilution factor 1000, 5 weeks at 36 C): Grow; Remarks (outcome) (Leprosy ulcers): Absorbed,; Time at which urine pH value reached the peak value ([3]; after taking drug): 2-3 hours; Time of return of urine pH to normal ([3]; after taking drug): 5-6 hours; Time the urine pH peak period can sustain ([3]; after taking drug): 3-4 hours; Urine pH value, Average ([3]; After drug 1 h): 6.5; Urine pH value, Average ([3]; After drug 2 h): 7; Urine pH value, Average ([3]; After drug 3 h): 6.5; Urine pH value, Average ([3]; After drug 4 h): 6.5; Urine pH value, Average ([3]; After drug 5 h): 6; Urine pH value, Average ([3]; After drug 6 h): 6; Patent's urine pH value ([3]; After drug 1 h): 6 (2×) and 6.5 (5×) and 7 (2×); Patent's urine pH value ([3]; After drug 2 h): 6.5 (2×) and 7 (5×) and 7.5 (2×); Patent's urine pH value ([3]; After drug 3 h): 6 (2×) and 6.5 (5×) and 7 (2×); Patent's urine pH value ([3]; After drug 4 h): 6 (2×) and 6.5 (5×) and 7 (2×); Patent's urine pH value ([3]; After drug 5 h): 5.5 (2×) and 6 (5×) and 6.5 (2×); Patent's urine pH value ([3]; After drug 6 h): 5.5 (2×) and 6 (5×) and 6.5 (2×); M. tuberculosis (acid-fast bacilli) in sputum after taking basic fuchsine for one month (M. tuberculosis; TB patients): no M. tuberculosis is found in sputum; Patients' blood test for liver and kidney after taking basic fuchsine (M. tuberculosis; TB patients): normal; TB symptoms after taking basic fuchsine for three months (M. tuberculosis; TB patients): TB symptoms are eliminated; X-ray after taking basic fuchsine for six months (M. tuberculosis; TB patients): recovery are confirmed through X-ray; Adverse reactions / side effect during the course of treatment (M. tuberculosis; all cases): no side effect is observed in all cases; Drug treatment after 1 month (TB status, symptoms) (M. tuberculosis; 1 capsule/day): TB Improved (−); also recorded: Improved TB (−); Drug treatment after 1 month (TB status, symptoms) (M. tuberculosis; 2 capsule/day): Pain reduced; Symptoms after taking basic fuchsine for one month (M. tuberculosis; majority of TB patients): Symptoms are significantly reduces; Liver or kidney damage (M. tuberculosis; patients taking drug for more than two years): no liver or kidney damages is observed; Recurrence (M. tuberculosis; patients who are recovered): no single occurrence of recurrence

— patent publication US9782366B2, “Drug for killing acid-fast (red) bacillus” (priority 2013, dated 2017)
